Assay results reported in the CheMixHub ionic liquid set.

Experiment: xn = mol fraction of the nth substance listed

CCCC(=O)O + CC(CC(C)(C)C)CP(=O)([O-])CC(C)CC(C)(C)C.CCCCCCCCCCCCCC[P+](CCCCCC)(CCCCCC)CCCCCC + O
100 kPa
Conditions	viscosity [mPa·s]
298 K, x2 = 0.09014, x1 = 0.601	53
298 K, x2 = 0.09759, x1 = 0.6041	54
298 K, x2 = 0.1129, x1 = 0.5867	83
310 K, x2 = 0.08641, x1 = 0.594	30
310 K, x2 = 0.1138, x1 = 0.593	47
310 K, x2 = 0.1346, x1 = 0.5734	58
310 K, x2 = 0.1366, x1 = 0.07313	82
310 K, x2 = 0.1673, x1 = 0.1732	84
310 K, x2 = 0.1882, x1 = 0.4901	87
310 K, x2 = 0.1908, x1 = 0.2923	90
310 K, x2 = 0.1962, x1 = 0.4196	91
318 K, x2 = 0.08808, x1 = 0.5881	24
318 K, x2 = 0.1141, x1 = 0.5826	35
318 K, x2 = 0.1336, x1 = 0.5507	44

c1ccsc1 + CCCC[n+]1ccn(C)c1.O=S(=O)([N-]S(=O)(=O)C(F)(F)F)C(F)(F)F
viscosity [mPa·s], 100 kPa
Conditions	x1 = 0.089	x1 = 0.276	x1 = 0.561	x1 = 1
298.15 K	–	–	14.73	0.655
308.15 K	29	18.8	–	–

CCCC[P+](CCCC)(CCCC)CCCC.F[B-](F)(F)F + CC#N + C1COCO1
298.15 K, 100 kPa
Conditions	viscosity [mPa·s]
x1 = 0.0005495, x2 = 0.8436	0.41
x1 = 0.0005755, x2 = 0.6431	0.471
x1 = 0.0006287, x2 = 0.3754	0.532
x1 = 0.0008217, x2 = 0.8434	0.414
x1 = 0.0008656, x2 = 0.6429	0.476
x1 = 0.0009366, x2 = 0.3753	0.537
x1 = 0.001098, x2 = 0.8432	0.418
x1 = 0.001156, x2 = 0.6427	0.481
x1 = 0.00125, x2 = 0.3751	0.543
x1 = 0.001375, x2 = 0.8429	0.422
x1 = 0.001445, x2 = 0.6425	0.486
x1 = 0.001564, x2 = 0.375	0.548
x1 = 0.001651, x2 = 0.8427	0.426
x1 = 0.00174, x2 = 0.6423	0.491
x1 = 0.001878, x2 = 0.3749	0.554
x1 = 0.001927, x2 = 0.8425	0.43
x1 = 0.00203, x2 = 0.6421	0.496
x1 = 0.002191, x2 = 0.3748	0.56

CC[NH3+].O=[N+]([O-])[O-] + CC[NH2+]CC.O=[N+]([O-])[O-]
Conditions	electrical conductivity [S/m]
323.15 K, 101 kPa, frequency 0.00293 MHz, x2 = 0	4.22

101 kPa, x2 = 0
Conditions	viscosity [mPa·s]
323.15 K	17.6
333.15 K	13.8

CCCCCCCCCCCCCCCC[n+]1ccccc1.[Cl-] + CS(C)=O + O
electrical conductivity [S/m], 100 kPa
Conditions	293.15 K	298.15 K	303.15 K	308.15 K
x1 = 3.75e-06, x2 = 0.01199	0.0021	0.0024	0.0024	0.0026
x1 = 3.9e-06, x2 = 0.02499	0.0019	0.002	0.0023	0.0023
x1 = 4.07e-06, x2 = 0.03911	0.0015	0.0016	0.0017	0.0019
x1 = 4.26e-06, x2 = 0.05452	0.0014	0.0015	0.0017	0.0019
x1 = 7.5e-06, x2 = 0.01199	0.0037	0.0042	0.0044	0.0047
x1 = 7.81e-06, x2 = 0.02499	0.0034	0.0036	0.0041	0.0044
x1 = 8.15e-06, x2 = 0.03911	–	0.0032	0.0037	0.0041
x1 = 8.52e-06, x2 = 0.05452	0.0027	0.0029	–	0.0037
x1 = 1.124e-05, x2 = 0.01199	0.0053	0.006	0.0065	0.0071
x1 = 1.171e-05, x2 = 0.02499	0.0049	0.0053	0.0059	0.0065
x1 = 1.222e-05, x2 = 0.03911	0.0045	0.0048	0.0055	0.0062
x1 = 1.278e-05, x2 = 0.05452	0.0041	0.0044	0.0049	0.0055
x1 = 1.499e-05, x2 = 0.01199	0.0071	0.0078	0.0086	0.0094
x1 = 1.562e-05, x2 = 0.02499	0.0063	0.0071	0.0077	0.0089
x1 = 1.63e-05, x2 = 0.03911	0.006	0.0065	0.0075	0.0086
x1 = 1.704e-05, x2 = 0.05452	0.0056	0.0059	0.0066	0.0075
x1 = 1.874e-05, x2 = 0.01199	0.0085	0.0095	–	–
x1 = 1.952e-05, x2 = 0.02499	0.0078	0.0088	0.0097	–
x1 = 2.037e-05, x2 = 0.03911	0.0075	0.0082	0.0095	–
x1 = 2.13e-05, x2 = 0.05452	0.0069	0.0075	0.0083	0.0094
x1 = 2.249e-05, x2 = 0.01199	0.0095	–	–	–
x1 = 2.343e-05, x2 = 0.02499	0.0095	–	–	–
x1 = 2.444e-05, x2 = 0.03911	0.0091	0.0098	–	–
x1 = 2.556e-05, x2 = 0.05452	0.0082	0.009	0.01	–
x1 = 2.981e-05, x2 = 0.05452	0.0092	–	–	–

CCC(=O)[O-].OCC[NH2+]c1ccccc1 + O
303.15 K, 100 kPa
Conditions	electrical conductivity [S/m]
x2 = 0.01476	0.000353
x2 = 0.03394	0.000354
x2 = 0.0417	0.000355
x2 = 0.05414	0.000356

CCCCCCCCn1cc[n+](C)c1.N#C[S-] + CN1CCCC1=O
viscosity [mPa·s], 101 kPa
Conditions	x1 = 0.0008419	x1 = 0.001327	x1 = 0.002048	x1 = 0.002709	x1 = 0.003576	x1 = 0.004058	x1 = 0.004657	x1 = 0.005393
288.15 K	2.152	2.16	2.177	2.191	2.199	2.204	2.213	2.229
298.15 K	1.809	1.817	1.827	1.834	1.846	1.857	1.865	1.872
308.15 K	1.572	1.58	1.591	1.599	1.61	1.621	1.631	1.641
318.15 K	1.354	1.37	1.393	1.407	1.417	1.434	1.447	1.458
